Results: publication PMC11480411, “Mucosal sugars delineate pyrazine vs pyrazinone autoinducer signaling in Klebsiella oxytoca” (Nature Communications, 2024)

Columns and labels:
Experiment in all cases: PRESTO-Tango GPCR screen
Format in all cases: cell-based
Settings in all cases: 100 µM
ADORA2A = molecular target: T1, ADORA2A (Homo sapiens, UniProt P29274)
T1 construct: purchased PRESTO-Tango GPCR kit (Roth lab / Addgene)
Protocol: (§1) The PRESTO-Tango analyses were performed as previously published. Briefly, HTLA cells, a HEK293 cell line that stably expresses β-arrestin-TEV and tTA-Luciferase (a kind gift from Gilad Barnea, Brown University), were plated in 96-well tissue culture plates (Eppendorf) in DMEM containing 10% FBS and 1% Penicillin/Streptomycin. One day after plating (after reaching approximately 90% confluence), 200 ng per well GPCR-Tango plasmids[37] in 20 μL DMEM were individually mixed with 400 ng polyethylenimine (Polysciences) in an equal volume of DMEM and incubated for 20 min at room temperature before adding the transfection mixture to the HTLA cells. 16-24 h after transfection, medium was replaced with 180 μL fresh DMEM containing 1% Penicillin/Streptomycin and 10 mM HEPES and 20 μL of 3 or 3-Homo to reach a final concentration of 100 μM. Supernatants were aspirated 20 h after stimulation and 50 μl per well of Bright-Glo solution (Promega) diluted 20-fold with PBS containing 20 mM HEPES was added into each well. After 15 min incubation at room temperature, luminescence was quantified using a Spectramax i3x microplate reader (Molecular Devices). Activation fold for each sample was calculated by dividing relative luminescence units (RLU) for each condition by RLUs from PBS control. Dose response curves of each chemical were performed in a similar way with varying the ligand concentration from 10^−4 M to 10^−15 M.

ADORA2B = molecular target: T2, ADORA2B (Homo sapiens, UniProt P29275)
T2 construct: purchased PRESTO-Tango GPCR kit (Roth lab / Addgene)
Protocol: as §1

CALCRL = molecular target: T3, CALCRL (Homo sapiens, UniProt Q16602)
T3 construct: purchased PRESTO-Tango GPCR kit (Roth lab / Addgene)
Protocol: as §1

CCR10 = molecular target: T4, CCR10 (Homo sapiens, UniProt P46092)
T4 construct: purchased PRESTO-Tango GPCR kit (Roth lab / Addgene)
Protocol: as §1

CCR3 = molecular target: T5, CCR3 (Homo sapiens, UniProt P51677)
T5 construct: purchased PRESTO-Tango GPCR kit (Roth lab / Addgene)
Protocol: as §1

CCR8 = molecular target: T6, CCR8 (Homo sapiens, UniProt P51685)
T6 construct: purchased PRESTO-Tango GPCR kit (Roth lab / Addgene)
Protocol: as §1

CX3C1 = molecular target: T7, CX3C1 (Homo sapiens, UniProt P49238)
T7 construct: purchased PRESTO-Tango GPCR kit (Roth lab / Addgene)
Protocol: as §1

CXCR5 = molecular target: T8, CXCR5 (Homo sapiens, UniProt P32302)
T8 construct: purchased PRESTO-Tango GPCR kit (Roth lab / Addgene)
Protocol: as §1

CXCR7 = molecular target: T9, CXCR7 (Homo sapiens, UniProt P25106)
T9 construct: purchased PRESTO-Tango GPCR kit (Roth lab / Addgene)
Protocol: as §1

EDNRB = molecular target: T10, EDNRB (Homo sapiens, UniProt P24530)
T10 construct: purchased PRESTO-Tango GPCR kit (Roth lab / Addgene)
Protocol: as §1

F2R = molecular target: T11, F2R (Homo sapiens, UniProt P25116)
T11 construct: purchased PRESTO-Tango GPCR kit (Roth lab / Addgene)
Protocol: as §1

F2RL3 = molecular target: T12, F2RL3 (Homo sapiens, UniProt Q96RI0)
T12 construct: purchased PRESTO-Tango GPCR kit (Roth lab / Addgene)
Protocol: as §1

GPR150 = molecular target: T13, GPR150 (Homo sapiens, UniProt Q8NGU9)
T13 construct: purchased PRESTO-Tango GPCR kit (Roth lab / Addgene)
Protocol: as §1

GPR152 = molecular target: T14, GPR152 (Homo sapiens, UniProt Q8TDT2)
T14 construct: purchased PRESTO-Tango GPCR kit (Roth lab / Addgene)
Protocol: as §1

GPR161 = molecular target: T15, GPR161 (Homo sapiens, UniProt Q8N6U8)
T15 construct: purchased PRESTO-Tango GPCR kit (Roth lab / Addgene)
Protocol: as §1

GPR20 = molecular target: T16, GPR20 (Homo sapiens, UniProt Q99678)
T16 construct: purchased PRESTO-Tango GPCR kit (Roth lab / Addgene)
Protocol: as §1

GPR50 = molecular target: T17, GPR50 (Homo sapiens, UniProt Q13585)
T17 construct: purchased PRESTO-Tango GPCR kit (Roth lab / Addgene)
Protocol: as §1

GRM4 = molecular target: T18, GRM4 (Homo sapiens, UniProt Q14833)
T18 construct: purchased PRESTO-Tango GPCR kit (Roth lab / Addgene)
Protocol: as §1

GRM7 = molecular target: T19, GRM7 (Homo sapiens, UniProt Q14831)
T19 construct: purchased PRESTO-Tango GPCR kit (Roth lab / Addgene)
Protocol: as §1

HTR1D = molecular target: T20, HTR1D (Homo sapiens, UniProt P28221)
T20 construct: purchased PRESTO-Tango GPCR kit (Roth lab / Addgene)
Protocol: as §1

HTR5 = molecular target: T21, HTR5 (Homo sapiens, UniProt P47898)
T21 construct: purchased PRESTO-Tango GPCR kit (Roth lab / Addgene)
Protocol: as §1

LPAR6 = molecular target: T22, LPAR6 (Homo sapiens, UniProt P43657)
T22 construct: purchased PRESTO-Tango GPCR kit (Roth lab / Addgene)
Protocol: as §1

MAS1L = molecular target: T23, MAS1L (Homo sapiens, UniProt P35410)
T23 construct: purchased PRESTO-Tango GPCR kit (Roth lab / Addgene)
Protocol: as §1

MRGPRF = molecular target: T24, MRGPRF (Homo sapiens, UniProt Q96AM1)
T24 construct: purchased PRESTO-Tango GPCR kit (Roth lab / Addgene)
Protocol: as §1

NMBR = molecular target: T25, NMBR (Homo sapiens, UniProt P28336)
T25 construct: purchased PRESTO-Tango GPCR kit (Roth lab / Addgene)
Protocol: as §1

NPBW2 = molecular target: T26, NPBW2 (Homo sapiens, UniProt P48146)
T26 construct: purchased PRESTO-Tango GPCR kit (Roth lab / Addgene)
Protocol: as §1

NPFF1 = molecular target: T27, NPFF1 (Homo sapiens, UniProt Q9GZQ6)
T27 construct: purchased PRESTO-Tango GPCR kit (Roth lab / Addgene)
Protocol: as §1

NPFF2 = molecular target: T28, NPFF2 (Homo sapiens, UniProt Q9Y5X5)
T28 construct: purchased PRESTO-Tango GPCR kit (Roth lab / Addgene)
Protocol: as §1

OPN3 = molecular target: T29, OPN3 (Homo sapiens, UniProt Q9H1Y3)
T29 construct: purchased PRESTO-Tango GPCR kit (Roth lab / Addgene)
Protocol: as §1

P2RY12 = molecular target: T30, P2RY12 (Homo sapiens, UniProt Q9H244)
T30 construct: purchased PRESTO-Tango GPCR kit (Roth lab / Addgene)
Protocol: as §1

PK1 = molecular target: T31, PK1 (Homo sapiens, UniProt Q8TCW9)
T31 construct: purchased PRESTO-Tango GPCR kit (Roth lab / Addgene)
Protocol: as §1

PTGER4 = molecular target: T32, PTGER4 (Homo sapiens, UniProt P35408)
T32 construct: purchased PRESTO-Tango GPCR kit (Roth lab / Addgene)
Protocol: as §1

PTGIR = molecular target: T33, PTGIR (Homo sapiens, UniProt P43119)
T33 construct: purchased PRESTO-Tango GPCR kit (Roth lab / Addgene)
Protocol: as §1

QRFP = molecular target: T34, QRFP (Homo sapiens, UniProt Q96P65)
T34 construct: purchased PRESTO-Tango GPCR kit (Roth lab / Addgene)
Protocol: as §1

TAAR5 = molecular target: T35, TAAR5 (Homo sapiens, UniProt O14804)
T35 construct: purchased PRESTO-Tango GPCR kit (Roth lab / Addgene)
Protocol: as §1

TACR1 = molecular target: T36, TACR1 (Homo sapiens, UniProt P25103)
T36 construct: purchased PRESTO-Tango GPCR kit (Roth lab / Addgene)
Protocol: as §1

T5 sequence (P51677 whole entry): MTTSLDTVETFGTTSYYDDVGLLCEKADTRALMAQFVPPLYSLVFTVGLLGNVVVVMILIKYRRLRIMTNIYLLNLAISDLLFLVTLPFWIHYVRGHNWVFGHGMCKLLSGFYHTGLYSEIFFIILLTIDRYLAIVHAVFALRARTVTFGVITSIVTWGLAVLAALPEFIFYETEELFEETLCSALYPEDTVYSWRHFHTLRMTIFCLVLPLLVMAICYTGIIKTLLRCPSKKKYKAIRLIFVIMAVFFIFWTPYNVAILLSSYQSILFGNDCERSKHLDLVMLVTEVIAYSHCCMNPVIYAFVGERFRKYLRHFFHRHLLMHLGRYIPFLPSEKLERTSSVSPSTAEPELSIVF
T17 sequence (Q13585 whole entry): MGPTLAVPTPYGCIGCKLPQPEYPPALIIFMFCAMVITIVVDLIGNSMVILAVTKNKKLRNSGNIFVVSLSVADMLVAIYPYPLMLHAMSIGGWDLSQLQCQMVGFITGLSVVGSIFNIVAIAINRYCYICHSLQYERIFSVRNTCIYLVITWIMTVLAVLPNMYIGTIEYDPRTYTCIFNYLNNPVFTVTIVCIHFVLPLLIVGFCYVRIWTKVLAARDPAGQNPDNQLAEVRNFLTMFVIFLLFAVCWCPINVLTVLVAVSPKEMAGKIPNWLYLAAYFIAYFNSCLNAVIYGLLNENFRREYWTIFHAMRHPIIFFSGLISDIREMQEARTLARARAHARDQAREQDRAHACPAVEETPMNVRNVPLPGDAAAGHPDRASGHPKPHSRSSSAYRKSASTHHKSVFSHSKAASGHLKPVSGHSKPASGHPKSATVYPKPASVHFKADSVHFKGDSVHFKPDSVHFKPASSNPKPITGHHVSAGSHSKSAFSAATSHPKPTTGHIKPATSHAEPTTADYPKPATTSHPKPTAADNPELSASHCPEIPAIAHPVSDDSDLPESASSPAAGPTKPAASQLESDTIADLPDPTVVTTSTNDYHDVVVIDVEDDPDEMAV
T11 sequence (P25116 22-425): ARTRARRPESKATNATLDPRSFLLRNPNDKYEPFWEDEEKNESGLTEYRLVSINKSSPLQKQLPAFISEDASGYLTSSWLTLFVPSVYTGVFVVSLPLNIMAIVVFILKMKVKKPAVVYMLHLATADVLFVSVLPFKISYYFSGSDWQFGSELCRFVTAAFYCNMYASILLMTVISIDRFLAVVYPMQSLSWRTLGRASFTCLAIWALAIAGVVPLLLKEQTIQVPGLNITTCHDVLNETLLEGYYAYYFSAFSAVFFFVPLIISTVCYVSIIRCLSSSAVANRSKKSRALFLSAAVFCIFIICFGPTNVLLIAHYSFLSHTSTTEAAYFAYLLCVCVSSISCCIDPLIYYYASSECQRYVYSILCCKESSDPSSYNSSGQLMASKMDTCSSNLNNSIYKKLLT
T36 sequence (P25103 whole entry): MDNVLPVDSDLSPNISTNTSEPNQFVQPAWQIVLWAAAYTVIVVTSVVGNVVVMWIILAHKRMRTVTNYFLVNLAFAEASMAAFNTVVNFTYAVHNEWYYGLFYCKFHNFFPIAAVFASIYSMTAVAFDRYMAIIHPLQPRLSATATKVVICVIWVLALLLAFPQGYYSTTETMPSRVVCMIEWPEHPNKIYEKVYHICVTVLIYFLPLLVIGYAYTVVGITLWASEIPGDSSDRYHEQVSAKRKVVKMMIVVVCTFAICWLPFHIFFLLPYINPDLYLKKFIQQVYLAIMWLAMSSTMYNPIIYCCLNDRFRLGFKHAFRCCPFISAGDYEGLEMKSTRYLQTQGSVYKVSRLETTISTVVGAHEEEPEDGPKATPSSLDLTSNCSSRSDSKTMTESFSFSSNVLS
T2 sequence (P29275 whole entry): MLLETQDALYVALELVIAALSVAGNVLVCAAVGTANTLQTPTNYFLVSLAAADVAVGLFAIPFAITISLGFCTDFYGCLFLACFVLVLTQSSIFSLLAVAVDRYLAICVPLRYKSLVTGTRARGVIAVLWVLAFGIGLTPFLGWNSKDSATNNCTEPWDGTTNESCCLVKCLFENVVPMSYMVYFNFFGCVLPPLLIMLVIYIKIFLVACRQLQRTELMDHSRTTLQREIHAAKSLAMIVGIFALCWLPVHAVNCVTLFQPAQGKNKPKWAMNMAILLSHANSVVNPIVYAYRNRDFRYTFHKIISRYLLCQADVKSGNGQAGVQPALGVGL
T33 sequence (P43119 whole entry): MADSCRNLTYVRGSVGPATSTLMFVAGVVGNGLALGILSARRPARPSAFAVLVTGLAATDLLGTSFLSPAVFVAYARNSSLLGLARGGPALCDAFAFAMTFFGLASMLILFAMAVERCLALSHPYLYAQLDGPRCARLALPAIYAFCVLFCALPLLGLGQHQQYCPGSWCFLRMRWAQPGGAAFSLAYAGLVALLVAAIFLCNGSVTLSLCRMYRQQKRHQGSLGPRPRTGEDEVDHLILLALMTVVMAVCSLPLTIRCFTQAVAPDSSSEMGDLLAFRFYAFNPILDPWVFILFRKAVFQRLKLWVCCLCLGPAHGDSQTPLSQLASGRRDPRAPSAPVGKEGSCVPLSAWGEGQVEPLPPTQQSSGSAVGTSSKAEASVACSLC
T21 sequence (P47898 whole entry): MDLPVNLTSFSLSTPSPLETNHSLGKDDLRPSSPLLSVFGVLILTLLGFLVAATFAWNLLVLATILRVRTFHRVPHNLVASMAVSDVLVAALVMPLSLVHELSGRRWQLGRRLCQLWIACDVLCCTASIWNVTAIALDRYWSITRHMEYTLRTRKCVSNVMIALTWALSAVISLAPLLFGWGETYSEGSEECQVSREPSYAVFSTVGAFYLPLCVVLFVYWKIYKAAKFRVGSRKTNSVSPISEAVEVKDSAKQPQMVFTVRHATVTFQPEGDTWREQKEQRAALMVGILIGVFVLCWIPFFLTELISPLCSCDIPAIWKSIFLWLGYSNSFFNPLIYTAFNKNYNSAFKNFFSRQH
T29 sequence (Q9H1Y3 whole entry): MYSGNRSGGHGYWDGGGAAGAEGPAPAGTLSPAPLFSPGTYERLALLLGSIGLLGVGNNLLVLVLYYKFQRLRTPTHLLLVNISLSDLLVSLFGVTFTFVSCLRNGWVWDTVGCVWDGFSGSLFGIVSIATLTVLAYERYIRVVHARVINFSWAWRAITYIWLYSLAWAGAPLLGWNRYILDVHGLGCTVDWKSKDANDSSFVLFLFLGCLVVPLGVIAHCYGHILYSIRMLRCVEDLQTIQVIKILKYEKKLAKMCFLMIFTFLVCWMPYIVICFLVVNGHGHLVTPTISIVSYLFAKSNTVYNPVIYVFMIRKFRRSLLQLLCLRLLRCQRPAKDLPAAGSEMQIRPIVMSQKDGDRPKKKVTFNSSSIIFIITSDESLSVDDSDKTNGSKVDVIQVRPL
T22 sequence (P43657 whole entry): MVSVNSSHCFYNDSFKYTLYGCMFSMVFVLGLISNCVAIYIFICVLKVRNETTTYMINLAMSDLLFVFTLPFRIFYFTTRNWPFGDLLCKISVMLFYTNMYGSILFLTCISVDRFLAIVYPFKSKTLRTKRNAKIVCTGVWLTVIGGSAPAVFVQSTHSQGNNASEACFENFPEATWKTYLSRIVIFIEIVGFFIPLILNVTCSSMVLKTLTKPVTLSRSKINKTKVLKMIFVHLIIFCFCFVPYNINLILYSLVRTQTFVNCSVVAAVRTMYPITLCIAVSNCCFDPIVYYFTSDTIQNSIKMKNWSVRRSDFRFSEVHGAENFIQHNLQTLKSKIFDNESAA
T1 sequence (P29274 whole entry): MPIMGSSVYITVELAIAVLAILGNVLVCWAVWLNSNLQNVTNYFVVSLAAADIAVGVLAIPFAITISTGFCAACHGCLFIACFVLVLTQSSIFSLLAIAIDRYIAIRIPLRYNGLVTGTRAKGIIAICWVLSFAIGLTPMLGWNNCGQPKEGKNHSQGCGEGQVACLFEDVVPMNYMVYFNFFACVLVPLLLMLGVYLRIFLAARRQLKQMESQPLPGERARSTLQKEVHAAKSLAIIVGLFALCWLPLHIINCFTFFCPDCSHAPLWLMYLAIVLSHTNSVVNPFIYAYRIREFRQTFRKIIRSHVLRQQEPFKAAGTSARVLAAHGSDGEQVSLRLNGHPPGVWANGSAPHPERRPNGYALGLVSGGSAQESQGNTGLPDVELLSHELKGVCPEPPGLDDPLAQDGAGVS
T7 sequence (P49238 whole entry): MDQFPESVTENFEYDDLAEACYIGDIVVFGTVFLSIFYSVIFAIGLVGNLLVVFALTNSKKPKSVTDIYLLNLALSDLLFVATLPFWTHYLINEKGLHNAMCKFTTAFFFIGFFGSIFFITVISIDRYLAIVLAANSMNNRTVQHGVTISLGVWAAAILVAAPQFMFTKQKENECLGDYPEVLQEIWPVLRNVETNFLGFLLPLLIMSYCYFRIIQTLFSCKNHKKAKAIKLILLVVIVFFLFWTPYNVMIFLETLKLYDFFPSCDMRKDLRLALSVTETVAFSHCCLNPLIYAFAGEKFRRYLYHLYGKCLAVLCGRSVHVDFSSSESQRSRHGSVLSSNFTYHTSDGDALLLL
T35 sequence (O14804 whole entry): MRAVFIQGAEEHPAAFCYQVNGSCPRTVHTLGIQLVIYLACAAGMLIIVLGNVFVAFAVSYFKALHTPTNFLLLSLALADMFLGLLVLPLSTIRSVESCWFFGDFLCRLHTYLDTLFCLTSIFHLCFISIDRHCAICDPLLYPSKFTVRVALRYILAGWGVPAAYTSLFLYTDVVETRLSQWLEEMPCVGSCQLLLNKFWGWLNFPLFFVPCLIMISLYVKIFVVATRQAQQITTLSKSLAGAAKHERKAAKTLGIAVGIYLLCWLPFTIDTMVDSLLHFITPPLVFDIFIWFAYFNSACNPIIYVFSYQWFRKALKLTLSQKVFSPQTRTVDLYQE

Row | SMILES | GPCR activation (heatmap value) (ADORA2A) | GPCR activation (heatmap value) (ADORA2B) | GPCR activation (heatmap value) (CALCRL) | GPCR activation (heatmap value) (CCR10) | GPCR activation (heatmap value) (CCR3) | GPCR activation (heatmap value) (CCR8) | GPCR activation (heatmap value) (CX3C1) | GPCR activation (heatmap value) (CXCR5) | GPCR activation (heatmap value) (CXCR7) | GPCR activation (heatmap value) (EDNRB) | GPCR activation (heatmap value) (F2R) | GPCR activation (heatmap value) (F2RL3) | GPCR activation (heatmap value) (GPR150) | GPCR activation (heatmap value) (GPR152) | GPCR activation (heatmap value) (GPR161) | GPCR activation (heatmap value) (GPR20) | GPCR activation (heatmap value) (GPR50) | GPCR activation (heatmap value) (GRM4) | GPCR activation (heatmap value) (GRM7) | GPCR activation (heatmap value) (HTR1D) | also measured
1 | CC(C)Cc1ncc(CCCCNC(=N)N)[nH]c1=O [3-Homo] | 0.2086 | -1.632 | 1.281 | 0.7826 | -0.05608 | -1.739 | 0.09565 | -0.9057 | -1.352 | -0.6292 | -0.4507 | -0.0006117 | -0.9768 | -0.3396 | 0.03788 | 0.638 | 0.1425 | -0.1574 | -0.0693 | -0.01602 | GPCR activation (heatmap value) (HTR5): 0.4039; GPCR activation (heatmap value) (LPAR6): 0.3664; GPCR activation (heatmap value) (MAS1L): 0.1505; GPCR activation (heatmap value) (MRGPRF): 0.9987; GPCR activation (heatmap value) (NMBR): 0.06446; GPCR activation (heatmap value) (NPBW2): -0.3796; GPCR activation (heatmap value) (NPFF1): -0.4803; GPCR activation (heatmap value) (NPFF2): -0.3895; GPCR activation (heatmap value) (OPN3): 0.7317; GPCR activation (heatmap value) (P2RY12): 0.3372; GPCR activation (heatmap value) (PK1): -0.2718; GPCR activation (heatmap value) (PTGER4): 0.407; GPCR activation (heatmap value) (PTGIR): -0.205; GPCR activation (heatmap value) (QRFP): 0.525; GPCR activation (heatmap value) (TAAR5): -0.4757; GPCR activation (heatmap value) (TACR1): -0.4178
2 | CC(C)Cc1ncc(CCCNC(=N)N)[nH]c1=O [compound 3] | 0.347 | 0.06134 | -0.1816 | 0.9946 | -0.6954 | -0.8888 | 0.5532 | 0.2848 | -0.2802 | 0.7397 | -0.02389 | 0.3497 | -0.9206 | -1.289 | 0.1774 | 1.634 | 0.1425 | -0.2331 | 0.04754 | 0.2043 | GPCR activation (heatmap value) (HTR5): -0.08015; GPCR activation (heatmap value) (LPAR6): 0.5638; GPCR activation (heatmap value) (MAS1L): -0.3942; GPCR activation (heatmap value) (MRGPRF): 0.6496; GPCR activation (heatmap value) (NMBR): 0.762; GPCR activation (heatmap value) (NPBW2): -0.2074; GPCR activation (heatmap value) (NPFF1): 0.7283; GPCR activation (heatmap value) (NPFF2): -0.5121; GPCR activation (heatmap value) (OPN3): 0.9288; GPCR activation (heatmap value) (P2RY12): 0.4559; GPCR activation (heatmap value) (PK1): -0.4687; GPCR activation (heatmap value) (PTGER4): 0.5017; GPCR activation (heatmap value) (PTGIR): 0.2177; GPCR activation (heatmap value) (QRFP): 0.1257; GPCR activation (heatmap value) (TAAR5): -0.8641; GPCR activation (heatmap value) (TACR1): -0.6956
